In the METLIN SMRT retention time set (Domingo-Almenara et al. 2019):

Test: gradient 5% acetonitrile 3 min, to 50% in 2 min, to 85% in 15 min, held 3 min, 100 µL/min
Conditions: column: Zorbax Extend-C18 2.1 x 50 mm; eluents: water / acetonitrile, 0.1% formic acid
Summary of the method: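 The system's dead and dwell volumes were 40 μL and 900 μL, with a Zorbax Extend-C18 column (2.1 × 50 mm, 1.8 μm) run at 100 μL/min in water and acetonitrile containing 0.1% formic acid each. Pure standards were analyzed in mixtures of ~100 molecules by HPLC–quadrupole time-of-flight mass spectrometry in positive and negative ionization mode. Retention time was assigned from computationally picked, manually inspected adduct peaks.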

RP-LC retention time | Compound
768 s | O=C(NCCc1c[nH]c2ccc(Cl)cc12)c1ccc(CN2C(=O)CCn3nccc32)cc1
797 s | O=C(NCC1CN(c2ccc(F)cc2)C(=O)O1)c1cc(Cl)ccc1Cl (configuration not stated)
1060 s | Cc1c(-c2nnc(C3CCC3)o2)c(S(=O)(=O)Nc2cccc(Cl)c2F)c(C)n1C
1340 s | O=C(Nc1cccc(Cl)c1)c1c(O)c2cccnc2n(-c2ccccc2)c1=O
911 s | Cc1ccc2ncn(C3CCN(C(=O)Nc4cc(Cl)ccc4C)CC3)c(=O)c2c1
609 s | CN1C(=O)c2cccn2CC1C(=O)N1CCN(c2ncccn2)CC1 (configuration not stated)
859 s | COc1ccc(-n2ccn3cc(-c4ccc(F)cc4)nc3c2=O)cc1Cl
622 s | Cc1ccn2c(NC(=O)c3ccco3)c(-c3ccccc3)nc2c1
768 s | N#Cc1cccc(C(=O)NC2CCN(c3ccc(F)cc3)C2=O)c1 (configuration not stated)
835 s | CCS(=O)(=O)c1nc2ccc(NS(=O)(=O)c3ccccc3F)cc2s1
954 s | O=C(CCn1nnc2cc(-c3noc(/C=C/c4ccccc4)n3)ccc21)N1CCCC1
991 s | CCN1C(=O)COc2ccc(-c3noc(C4(c5ccccc5)CC4)n3)cc21
706 s | CCn1ccc2c(cc(C(=O)Nc3ccc(OC)cc3)n2C)c1=O
794 s | CN1C2CCC1CC(OC(=O)C(O)c1ccccc1)C2 (configuration not stated)
594 s | O=C(NC1CC(=O)N(C2CC2)C1)c1cnc2ccccc2n1 (configuration not stated)
768 s | Cc1ccc2[nH]cc(CCN3CC(C(=O)N4CCCCC4)CC3=O)c2c1 (configuration not stated)
914 s | Cc1nn(-c2ccc(F)cc2)c(C)c1S(=O)(=O)N1CCC(C(=O)N2CCCCC2)CC1
679 s | COCCOCC(=O)N1CC(Oc2ccc(-c3nc(C)no3)cc2)C1

RP-LC retention time | Compound
892 s | Cc1ccc(NC(=O)C2CCCN2S(=O)(=O)c2cc3c(cc2C)NC(=O)C(C)O3)cc1Cl (configuration not stated)
625 s | COc1ccc(OC)c(NC(=O)Nc2c(-c3ccc(F)cc3)nc3ccccn23)c1
566 s | O=C1CS(=O)C2(CCNCC2)N1Cc1cccc(F)c1 (configuration not stated)
836 s | CCOC(=O)N1CCN(c2nc(F)c(F)c(S(=O)(=O)CCN3C(=O)CCC3=O)c2F)CC1
968 s | CCCCn1c(=O)c2ccccc2n(Cc2nc(-c3ccc(OCC)c(OC)c3)no2)c1=O
848 s | COc1cc(Cl)c(C)cc1NC(=O)Cc1nnc(-c2ccc3ncccc3c2)o1
706 s | Cc1nc(C(=O)Nc2cccc(F)c2)c(C)n1C1CCN(S(C)(=O)=O)CC1
588 s | CCCCNC(=O)C1CCN(c2nc3ccc(-c4cccnc4)nc3s2)CC1
698 s | CCOC1CCN(C(=O)NC2CCCC2)CC1
858 s | O=C(O)C(Cc1c[nH]c2ccccc12)N1C(=O)c2ccccc2C1=O (configuration not stated)
580 s | O=C(NCc1ccccc1)N1CCC(Nc2cccnc2)C1 (configuration not stated)
573 s | CN(C)CCNC(=O)C1CCCN(c2ncnc3c2nc2n3CCCCC2)C1 (configuration not stated)
739 s | O=S(=O)(c1ccc(Cl)c(-c2nnc(-c3ccccc3)o2)c1)N(CCO)CCO
812 s | CCn1c(=O)c2c(cc(C)n2C)n(CC(=O)Nc2ccc(C)cc2C)c1=O
585 s | CCC(=O)N1CCc2cc(N3CC(C(=O)NC(C)c4ccccn4)CC3=O)ccc21 (configuration not stated)
1050 s | Cn1c(C(=O)NCCC2=CCCCC2)cc2c(=O)oc3ccccc3c21
896 s | CCc1ccc(C2=C(C)C(N3CCCN(C(=O)c4ccccc4)CC3)=NS2(=O)=O)cc1
788 s | O=C(Nc1ccc2c(c1)OCCO2)N1CCCC1c1nc(CCOCC2CC2)no1 (configuration not stated)

Compound | RP-LC retention time
O=C(NCc1ccc(F)cc1F)c1c(O)c2cccnc2n(Cc2ccccc2)c1=O | 1400 s
